In brackets after ≈: the same amount, converted by molar mass. One block for each compound: values may come before it.
Columns and labels:
Test in all cases: ≥ marks a high value that may be exact or a test limit, other limits are often not marked, values filed in µg/mL are converted to µM
[1] = tested on: Staphylococcus aureus AB94004
[2] = tested on: Bacillus thuringiensis AB92037
[3] = tested on: Staphylococcus aureus P1386
[4] = tested on: Bacillus subtilis AB91021
[5] = tested on: Staphylococcus epidermidis P1389
[6] = tested on: Staphylococcus epidermidis P1111
Escherichia coli AB94012 = tested on: Escherichia coli AB94012
[7] = tested on: Staphylococcus aureus P1374
[8] = tested on: Pseudomonas aeruginosa AB93066
[9] = tested on: Staphylococcus aureus P1369
[10] = tested on: Micrococcus luteus AB93113
[11] = tested on: Klebsiella pneumoniae ATCC 10031
[12] = tested on: Staphylococcus aureus ATCC 6538P
[13] = tested on: Escherichia coli ATCC 25922
[14] = tested on: Pseudomonas aeruginosa ATCC 27853
[15] = tested on: Bacillus subtilis ATCC 6633
[16] = tested on: Salmonella enterica subsp. enterica serovar Typhimurium ATCC 14028
[17] = tested on: Shigella dysenteriae ATCC 9752
[18] = tested on: Staphylococcus aureus TK784
[19] = tested on: Staphylococcus epidermidis ATCC 12228
[20] = tested on: Micrococcus luteus ATCC 10240
[21] = tested on: Pseudomonas aeruginosa H1027
[22] = tested on: Enterococcus faecium mic80
[23] = tested on: Pseudomonas aeruginosa 213
[24] = tested on: Pseudomonas aeruginosa 198
[25] = tested on: Enterococcus faecalis ATCC 29212
[26] = tested on: Enterococcus faecalis W61950
[27] = tested on: Staphylococcus aureus C623
[28] = tested on: Escherichia coli ESBL 63103
[29] = tested on: Pseudomonas aeruginosa H1030
[30] = tested on: Enterococcus faecium t62764
[31] = tested on: Escherichia coli ESBL 64771
[32] = tested on: Klebsiella pneumoniae ESBL 61962
[33] = tested on: Staphylococcus aureus ATCC 25923
[34] = tested on: Stenotrophomonas maltophilia ATCC 13637
[35] = tested on: Pseudomonas aeruginosa PAO1 H103
[36] = tested on: Pseudomonas aeruginosa LES400
[37] = tested on: Enterococcus faecalis f43559
Pseudomonas aeruginosa 9 = tested on: Pseudomonas aeruginosa 9
[38] = tested on: Enterobacter cloacae 218R
[39] = tested on: Klebsiella pneumoniae ESBL 63575
Staphylococcus aureus = tested on: Staphylococcus aureus
Escherichia coli B = tested on: Escherichia coli B
[40] = tested on: Klebsiella pneumoniae ST258
Pseudomonas aeruginosa = tested on: Pseudomonas aeruginosa
Bacillus subtilis 168 = tested on: Bacillus subtilis 168
Escherichia coli ST131 = tested on: Escherichia coli ST131
[41] = tested on: Batrachochytrium dendrobatidis

MIC [11]: 2.84 µM (≈ 4 µg/mL) | MIC [12]: 1.42 µM (≈ 2 µg/mL) | MIC [13]: 2.84 µM (≈ 4 µg/mL) | MIC [14]: 2.84 µM (≈ 4 µg/mL) | MIC [15]: 1.42 µM (≈ 2 µg/mL) | MIC [16]: 2.84 µM (≈ 4 µg/mL) | MIC [17]: 1.42 µM (≈ 2 µg/mL) | MIC [18]: 11.3 µM (≈ 16 µg/mL) | MIC [19]: 1.42 µM (≈ 2 µg/mL) | MIC [20]: 2.84 µM (≈ 4 µg/mL)
SMILES: CC(C)C[C@H](NC(=O)[C@H](CC(C)C)NC(=O)[C@H](CCCCN)NC(=O)[C@H](CCCCN)NC(=O)[C@H](CC(C)C)NC(=O)[C@H](Cc1c[nH]c2ccccc12)NC(=O)[C@H](CCCCN)NC(=O)[C@H](CC(C)C)NC(=O)[C@@H](N)CC(C)C)C(=O)N[C@@H](CCCCN)C(=O)N[C@@H](CCCCN)C(N)=O [LLKWLKKLLKK]

MIC [13]: 2 µM (≈ 2.88 µg/mL) | MIC (Staphylococcus aureus): 60 µM (≈ 86.3 µg/mL) | MIC (Escherichia coli B): 1.8 µM (≈ 2.59 µg/mL) | MIC [40]: ≥ 32 µM | MIC (Pseudomonas aeruginosa): 14.2 µM (≈ 20.4 µg/mL) | MIC (Bacillus subtilis 168): 1.3 µM (≈ 1.87 µg/mL) | MIC (Escherichia coli ST131): 2 µM (≈ 2.88 µg/mL)
SMILES: CC[C@H](C)[C@H](NC(=O)[C@H](CC(C)C)NC(=O)[C@H](CCCCN)NC(=O)CNC(=O)[C@H](CC(C)C)NC(=O)[C@@H](NC(=O)[C@H](CCCCN)NC(=O)[C@H](CCCCN)NC(=O)[C@H](Cc1c[nH]c2ccccc12)NC(=O)[C@H](CCCCN)NC(=O)CN)[C@@H](C)CC)C(=O)N[C@@H](CCCN=C(N)N)C(N)=O [GKWKKILGKLIR]

Second part, the compound before the results:

SMILES: CC[C@H](C)[C@H](NC(=O)[C@H](C)NC(=O)[C@H](CO)NC(=O)[C@@H](NC(=O)[C@H](CC(C)C)NC(=O)CNC(=O)CNC(=O)[C@@H](NC(=O)[C@H](CC(C)C)NC(=O)[C@H](CO)NC(=O)[C@@H]1CCCN1C(=O)[C@H](CC(C)C)NC(=O)[C@H](CC(C)C)NC(=O)[C@H](CO)NC(=O)[C@H](Cc1ccccc1)NC(=O)[C@@H](N)Cc1ccccc1)[C@@H](C)CC)C(C)C)C(=O)N[C@@H](CCCCN)C(N)=O [FFSLLPSLIGGLVSAIK]
MIC [1]: 11.3 µM (≈ 20 µg/mL) | MIC [2]: 28.4 µM (≈ 50 µg/mL) | MIC [3]: 28.4 µM (≈ 50 µg/mL) | MIC [4]: 28.4 µM (≈ 50 µg/mL) | MIC [5]: 28.4 µM (≈ 50 µg/mL) | MIC [6]: 11.3 µM (≈ 20 µg/mL) | MIC (Escherichia coli AB94012): ≥ 56.7 µM | MIC [7]: 28.4 µM (≈ 50 µg/mL) | MIC [8]: ≥ 56.7 µM | MIC [9]: 28.4 µM (≈ 50 µg/mL) | MIC [10]: 11.3 µM (≈ 20 µg/mL)

SMILES: CC[C@H](C)[C@H](NC(=O)[C@H](C)N)C(=O)N[C@@H](CCCN=C(N)N)C(=O)N[C@@H](CCCN=C(N)N)C(=O)N[C@@H](Cc1c[nH]c2ccccc12)C(=O)N[C@@H](CCCN=C(N)N)C(=O)N[C@H](C(=O)N[C@@H](CCCN=C(N)N)C(=O)N[C@@H](CCCCN)C(=O)O)[C@@H](C)CC [AIRRWRIRK]
MIC [21]: ≥ 137 µM | MIC [22]: ≥ 68.6 µM | MIC [23]: ≥ 137 µM | MIC [24]: ≥ 137 µM | MIC [25]: > 137 µM | MIC [26]: ≥ 137 µM | MIC [27]: ≥ 34.3 µM | MIC [28]: ≥ 68.6 µM | MIC [29]: ≥ 137 µM | MIC [30]: 8.77 µM (≈ 11 µg/mL) | MIC [31]: ≥ 68.6 µM | MIC [32]: ≥ 137 µM | MIC [33]: 34.3 µM (≈ 43 µg/mL) | MIC [34]: ≥ 68.6 µM | MIC [35]: ≥ 137 µM | MIC [36]: ≥ 137 µM | MIC [37]: ≥ 137 µM | MIC (Pseudomonas aeruginosa 9): ≥ 137 µM | MIC [38]: ≥ 68.6 µM | MIC [39]: ≥ 137 µM

SMILES: CC[C@H](C)[C@H](NC(=O)CN)C(=O)N[C@@H](CCSC)C(=O)N[C@@H](CC(=O)O)C(=O)N[C@@H](CO)C(=O)N[C@H](C(=O)N[C@@H](CCCCN)C(=O)NCC(=O)N[C@@H](CC(C)C)C(=O)N[C@@H](C)C(=O)N[C@@H](CCCCN)C(=O)N[C@@H](CC(N)=O)C(=O)N[C@@H](CC(C)C)C(=O)N[C@@H](C)C(=O)NCC(=O)N[C@@H](CCCCN)C(=O)N[C@@H](CC(C)C)C(=O)N[C@@H](CC(C)C)C(=O)N[C@@H](CC(=O)O)C(=O)N[C@@H](CO)C(=O)N[C@@H](CC(C)C)C(=O)N[C@@H](CCCCN)C(=O)N[C@H]1CSSC[C@@H](C(=O)O)NC(=O)CNC(=O)[C@H]([C@@H](C)O)NC(=O)[C@H]([C@@H](C)CC)NC(=O)[C@H](CCCCN)NC1=O)C(C)C [GIMDSVKGLAKNLAGKLLDSLKCKITGC]
MIC [13]: 17 µM (≈ 48.9 µg/mL) | MIC [41]: 12.5 µM (≈ 35.9 µg/mL)
